The values below come from patent publication US20230312587A1, “PTERIDINONE COMPOUNDS AND USES THEREOF” (Vertex Pharmaceutical Incorporated, priority 2018, published 2023).

Experiment [1] concerns global gene expression in HepG2 cells. Description: Global gene expression changes in HepG2 vs WFS1 depleted cells. The format is cell-based. The following applies: HepG2, 6 hours of exposure. An excerpt:
In contrast WFS1 depletion had no effect on thapsigargin induced changes in global gene expression (FIG. 7.)

The target of another experiment is WFS1 (Homo sapiens (Human), UniProt O76024). Description: Binding of radiolabeled Compound 136 to cellular membrane extracts. On the procedure:
Cell pellets were re-suspended in 15 times packed cellular volume in 4° C. hypotonic lysis buffer (10 mM HEPES, pH 7.5 containing 1×Protease inhibitor, 0.5 mM EDTA and 2 mM DTT). Re-suspended cells were homogenized with 6-8 strokes in a dounce homogenizer kept on ice. Lysates were centrifuged at 500×G for 15 minutes at 4° C. without brake to decelerate rotor. Following centrifugation, remove the supernatant to a fresh tube and place on ice (Supernatant 1). Repeat the above steps on the lysed cell pellet using 0.5 the original volume of hypotonic lysis buffer and remove the 500× G supernatant (Supernatant 2) and combine with Supernatant 1. Transfer the combined supernatants to a 45-Ti ultracentrifuge tube and centrifuge at 100,000× G for 30 minutes. Following ultracentrifugation, carefully remove the supernatant and discard. Resuspend the 100,000× G pellet in cold resuspension buffer (10 mM HEPES, pH 7.5, 300 mM NaCl containing 1× Protease inhibitor, 1× EDTA and 2 mM DTT). […]
The binding affinities of compounds were determined by measuring the competitive displacement of a tritiated Compound 136 probe from purified HEK293 membranes over-expressing WFS-1. […]
The binding affinity of radiolabeled Compound 136 to cell membranes derived from cells expressing different levels of WFS1 as determined by immunoblotting is shown in FIG. 8. […]

SMILES strings stand for the structures.

Chain of WFS1 (O76024 whole entry): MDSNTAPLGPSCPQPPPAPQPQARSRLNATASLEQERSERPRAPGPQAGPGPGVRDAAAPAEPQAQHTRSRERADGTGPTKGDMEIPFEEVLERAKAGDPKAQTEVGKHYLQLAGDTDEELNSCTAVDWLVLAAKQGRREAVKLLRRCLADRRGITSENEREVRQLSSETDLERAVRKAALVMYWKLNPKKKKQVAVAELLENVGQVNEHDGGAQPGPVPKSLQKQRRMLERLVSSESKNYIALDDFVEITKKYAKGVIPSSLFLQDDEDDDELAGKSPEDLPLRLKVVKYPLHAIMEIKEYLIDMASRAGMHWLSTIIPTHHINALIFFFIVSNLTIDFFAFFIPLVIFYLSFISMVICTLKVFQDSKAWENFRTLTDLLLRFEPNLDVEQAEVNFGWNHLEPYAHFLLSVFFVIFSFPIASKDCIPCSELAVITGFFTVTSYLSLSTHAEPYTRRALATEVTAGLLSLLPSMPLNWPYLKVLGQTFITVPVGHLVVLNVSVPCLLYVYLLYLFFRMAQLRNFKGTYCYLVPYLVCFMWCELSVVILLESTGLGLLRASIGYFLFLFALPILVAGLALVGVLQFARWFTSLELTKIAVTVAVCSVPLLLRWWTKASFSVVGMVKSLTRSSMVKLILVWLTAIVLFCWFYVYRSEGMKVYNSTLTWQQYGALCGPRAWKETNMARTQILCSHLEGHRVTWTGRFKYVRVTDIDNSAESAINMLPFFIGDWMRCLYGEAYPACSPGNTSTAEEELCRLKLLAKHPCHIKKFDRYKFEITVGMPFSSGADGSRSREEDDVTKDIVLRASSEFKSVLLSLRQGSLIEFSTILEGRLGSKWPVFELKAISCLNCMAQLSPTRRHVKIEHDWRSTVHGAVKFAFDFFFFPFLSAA

Consider `Cc1nc(NCc2cnn(Cc3ccc(C(F)(F)F)nc3)c2)nc2c1NC(=O)[C@H](C)N2C` [Compound 136, (7S)-4,7,8-trimethyl-2-(((1-((6-(trifluoromethyl)pyridin-3-yl)methyl)-111-pyrazol-4-yl)methyl)amino)-7,8-dihydropteridin-6(5H)-one], for which the “effect of WFS1 depletion on changes in global gene expression” value in experiment [1] was “prevented Compound 136 from causing changes”. Further, the “binding to cellular membrane extracts which over-express WFS1” value on WFS1 (radiolabeled (tritiated) Compound 136) is listed as “specifically bind”. Moreover, the “Bmax vs level of WFS1 protein in cellular membrane” value on WFS1 (radiolabeled Compound 136, cells expressing different levels of WFS1) is reported as “correlates with the level of WFS1 protein”.
